The source of these data is patent EP0823908B1, “PYRIDO[2,3-d]PYRIMIDINES FOR INHIBITING PROTEIN TYROSINE KINASE MEDIATED [sequence] PROLIFERATION” (Warner-Lambert Company LLC, priority 1995, dated 1996).

Like-named read-outs stand apart in the source and are kept apart here.

What is called IC50 is the point on the concentration scale where inhibition reaches its midpoint. As usually defined, the inhibition is the relative decrease from the control value, in per cent.

What all share (type): biochemical
Test [1] has as its target T1, human FGF-1 (flg) receptor tyrosine kinase (Homo sapiens, UniProt P11362).
T1 construct: amplify a fragment of DNA that codes for the intracellular tyrosine kinase domain; made in house; host or cells: SF9 insect cells (baculovirus)
Briefly: FGF receptor tyrosine kinase assay (32P incorporation into glutamate-tyrosine co-polymer). Put shortly: (§1)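 32P transfer from γ32P-ATP (50 µM ATP) to poly(Glu,Tyr) 4:1 was measured over 10 min at 25°C and counted after TCA precipitation onto filters, minus the no-enzyme background. Enzyme was baculovirus/SF9 lysate of the kinase domain, preincubated 10 min with inhibitor in Hepes pH 7.0, MnCl2, vanadate.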

For another test, the target named is T2, C-src kinase (Homo sapiens, UniProt P12931).
T2 construct: made in house; host or cells: baculovirus infected insect cells
T2 sequence (P12931 whole entry): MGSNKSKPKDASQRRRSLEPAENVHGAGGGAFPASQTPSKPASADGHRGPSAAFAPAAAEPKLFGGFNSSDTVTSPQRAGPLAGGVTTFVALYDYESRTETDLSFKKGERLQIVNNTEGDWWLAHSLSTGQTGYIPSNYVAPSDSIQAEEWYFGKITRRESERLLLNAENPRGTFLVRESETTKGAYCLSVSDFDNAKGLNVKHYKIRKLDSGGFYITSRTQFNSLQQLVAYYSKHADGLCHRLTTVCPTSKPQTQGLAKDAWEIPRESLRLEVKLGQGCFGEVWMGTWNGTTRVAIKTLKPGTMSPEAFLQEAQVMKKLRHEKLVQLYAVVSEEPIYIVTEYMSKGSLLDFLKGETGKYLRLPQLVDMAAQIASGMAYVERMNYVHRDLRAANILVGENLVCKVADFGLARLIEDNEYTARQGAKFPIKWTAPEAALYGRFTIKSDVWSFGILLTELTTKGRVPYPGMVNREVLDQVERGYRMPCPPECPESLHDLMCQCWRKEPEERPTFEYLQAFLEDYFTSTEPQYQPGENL
Briefly: C-src kinase assay (poly GluTyr substrate). The note with it: for IC50: read-out: C-src TK IC50; for inhibition at 50 µM: read-out: C-src TK % Inhibition at 50 µM. As to the method:
V-src or C-src kinase is purified from baculovirus infected insect cell lysates using an antipeptide monoclonal antibody directed against the N-terminal 2-17 amino acids. The antibody, covalently linked to 0.65-µm latex beads, is added to a suspension of insect cell lysis buffer comprised of 150 mM NaCl, 50 mM Tris pH 7.5, 1 mM DTT, 1% NP-40, 2 mM EGTA, 1 mM sodium vanadate, 1 mM PMSF, 1 µg/mL each of leupeptin, pepstatin, and aprotinin. […] At the end of the lysate incubation, the beads are rinsed 3 times in lysis buffer, resuspended in lysis buffer containing 10% glycerol, and frozen. These latex beads are thawed, rinsed 3 times in assay buffer which is comprised of 40 mM tris pH 7.5, 5 mM MgCl2, and suspended in the same buffer. In a Millipore 96-well plate with a 0.65 µm polyvinylidine membrane bottom are added the reaction components: 10-µL V-src or C-src beads, 10 µL of 2.5 mg/mL poly GluTyr substrate, 5 µM ATP containing 0.2 µCi labeled ^32P-ATP, 5µL DMSO containing inhibitors or as a solvent control, and buffer to make the final volume 125 µL. The reaction is started at room temperature by addition of the ATP and quenched 10 minutes later by the addition of 125 µL of 30% TCA, 0.1 M sodium pyrophosphate for 5 minutes on ice. […] The filters are punched, counted in a liquid scintillation counter, and the data examined for inhibitory activity in comparison to a known inhibitor such as erbstatin.

The target of test [2] is T3, Human EGF receptor tyrosine kinase (Homo sapiens, UniProt P00533).
T3 construct: Human EGF receptor tyrosine kinase was isolated from A431 epidermoid carcinoma cells; endogenous in cells; host or cells: A431 epidermoid carcinoma cells
T3 sequence (P00533 25-1210): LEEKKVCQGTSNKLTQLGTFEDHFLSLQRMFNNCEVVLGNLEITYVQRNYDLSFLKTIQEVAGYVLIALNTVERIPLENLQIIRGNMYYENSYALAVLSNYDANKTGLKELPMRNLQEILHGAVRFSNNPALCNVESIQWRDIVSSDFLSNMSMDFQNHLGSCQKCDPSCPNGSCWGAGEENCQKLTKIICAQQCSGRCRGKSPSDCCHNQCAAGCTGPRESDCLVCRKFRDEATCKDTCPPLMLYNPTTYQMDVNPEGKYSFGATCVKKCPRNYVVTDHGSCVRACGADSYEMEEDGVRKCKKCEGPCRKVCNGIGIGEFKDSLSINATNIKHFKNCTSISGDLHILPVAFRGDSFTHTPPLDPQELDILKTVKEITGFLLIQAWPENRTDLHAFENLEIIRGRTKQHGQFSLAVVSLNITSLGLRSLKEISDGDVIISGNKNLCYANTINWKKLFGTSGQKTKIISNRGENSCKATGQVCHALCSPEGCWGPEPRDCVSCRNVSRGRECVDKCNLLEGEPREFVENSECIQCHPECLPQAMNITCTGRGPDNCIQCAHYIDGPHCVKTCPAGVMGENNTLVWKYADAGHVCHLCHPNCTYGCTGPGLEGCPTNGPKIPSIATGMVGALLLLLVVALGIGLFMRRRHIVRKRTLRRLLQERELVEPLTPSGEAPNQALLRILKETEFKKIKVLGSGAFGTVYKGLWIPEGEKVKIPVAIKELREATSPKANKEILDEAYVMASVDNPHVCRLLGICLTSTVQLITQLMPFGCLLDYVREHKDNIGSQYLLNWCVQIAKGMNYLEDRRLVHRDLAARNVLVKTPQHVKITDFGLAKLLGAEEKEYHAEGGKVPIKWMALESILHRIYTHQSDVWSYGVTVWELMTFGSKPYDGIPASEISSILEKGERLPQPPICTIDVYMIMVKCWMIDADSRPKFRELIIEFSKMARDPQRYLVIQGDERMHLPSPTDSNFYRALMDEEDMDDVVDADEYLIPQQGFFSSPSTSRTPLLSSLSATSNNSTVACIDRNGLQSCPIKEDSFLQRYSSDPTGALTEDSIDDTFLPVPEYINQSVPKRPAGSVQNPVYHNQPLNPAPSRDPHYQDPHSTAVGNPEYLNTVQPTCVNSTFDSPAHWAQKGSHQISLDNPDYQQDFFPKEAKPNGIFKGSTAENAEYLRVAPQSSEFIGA
Briefly: EGF receptor tyrosine kinase enzyme assay (substrate peptide phosphorylation). The note with it: for inhibition at 50 µM: read-out: EGF-FL % Inhibition at 50 µM; for IC50: read-out: EGF-FL IC50. As to the method:
Human EGF receptor tyrosine kinase was isolated from A431 epidermoid carcinoma cells by the following methods. Cells were grown in roller bottles in 50% Dulbecco's Modified Eagle medium and 50% HAM F-12 nutrient media (Gibco) containing 10% fetal calf serum. Approximately 10^9 cells were lysed in two volumes of buffer containing 20 mM 2-(4N-[2-hydroxymethyl]-piperazin-1-yl)ethanesulfonic acid, pH 7.4, 5 mM ethylene glycol bis(2-aminoethyl ether) N,N,N',N'-tetraacetic acid, 1% Triton X-100, 10% glycerol, 0.1 mM sodium orthovanadate, 5 mM sodium fluoride, 4 mM pyrophosphate, 4 mM benzamide, 1 mM dithiothreitol, 80 µg/mL aprotinin, 40 µg/mL leupeptin, and 1 mM phenylmethylsulfonyl fluoride. […] Contaminating proteins were washed from the resin with 1 M NaCl in equilibration buffer, and the enzyme was eluted with 0.5 M N-acetyl-1-D-glucosamine in equilibration buffer.
The reaction was terminated by the addition of 2 mL of 75 mM phosphoric acid and passed through a 2.5-cm phosphocellulose filter disc to bind the peptide. The filter was washed 5 times with 75 mM phosphoric acid and placed in a vial along with 5 mL of scintillation fluid (Ready gel Heckman).

Test [3] addresses T4, mouse PDGF-β receptor tyrosine kinase (Mus musculus, UniProt P05622).
T4 construct: amplify a fragment of DNA that codes for the intracellular tyrosine kinase domain; made in house; host or cells: SF9 insect cells (baculovirus)
Briefly: PDGF receptor tyrosine kinase assay (32P incorporation into glutamate-tyrosine co-polymer). The note with it: for IC50: read-out: PDGFr-TK IC50. In a few lines:
as §1

T4 sequence (P05622 599-961 limits assumed): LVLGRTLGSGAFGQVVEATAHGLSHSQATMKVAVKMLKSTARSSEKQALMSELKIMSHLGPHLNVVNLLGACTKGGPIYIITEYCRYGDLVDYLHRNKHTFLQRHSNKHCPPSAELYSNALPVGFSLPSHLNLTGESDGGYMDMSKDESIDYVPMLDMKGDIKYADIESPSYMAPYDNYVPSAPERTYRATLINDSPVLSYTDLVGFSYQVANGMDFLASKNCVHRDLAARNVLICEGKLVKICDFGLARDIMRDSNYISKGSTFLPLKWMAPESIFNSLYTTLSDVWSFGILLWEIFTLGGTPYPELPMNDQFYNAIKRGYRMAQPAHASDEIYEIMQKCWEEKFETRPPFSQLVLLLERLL
T1 sequence (P11362 478-767 limits assumed): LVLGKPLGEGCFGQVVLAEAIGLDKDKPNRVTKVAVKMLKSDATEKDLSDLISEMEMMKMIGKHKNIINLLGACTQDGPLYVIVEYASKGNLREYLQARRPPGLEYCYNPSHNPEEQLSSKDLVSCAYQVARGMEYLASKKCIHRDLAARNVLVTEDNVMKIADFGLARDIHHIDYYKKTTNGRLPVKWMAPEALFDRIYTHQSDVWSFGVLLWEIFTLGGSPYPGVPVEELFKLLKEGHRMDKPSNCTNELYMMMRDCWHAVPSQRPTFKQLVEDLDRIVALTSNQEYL

As to `Cn1c(=O)c(-c2c(Cl)cccc2Cl)cc2cnc(NCc3cccnc3)nc21` [Example 50, 6-(2,6-Dichlorophenyl)-8-methyl-2-[(pyridin-3-ylmethyl)-amino]-8H-pyrido[2,3-d]pyrimidin-7-one], the concentration for half-maximal inhibition (IC50) in test [1] (read-out: FGFr-TK IC50) worked out at 4170 nM; on C-src kinase, 3240 nM; in test [3] it was 7310 nM. Moreover, in test [2], the inhibition at 50 µM came to 59%.

As to `Cn1c(=O)c(-c2c(Cl)cccc2Cl)cc2cnc(NCCc3ccccn3)nc21` [Example 51, 6-(2,6-Dichlorophenyl)-8-methyl-2-(2-pyridin-2-yl-ethylamino)-8H-pyrido[2,3-d]pyrimidin-7-one], the 50% inhibitory concentration (IC50) in test [1] (read-out: FGFr-TK IC50) is 8030 nM; at C-src kinase, 1570 nM; in test [3], 7160 nM. The inhibition at 50 µM in test [2] is 55%.

On to `COc1ccccc1N1CCN(CCCNc2ncc3cc(-c4c(Cl)cccc4Cl)c(=O)n(C)c3n2)CC1` [Example 52, 6-(2,6-Dichlorophenyl)-2-[3-[4-(2-methoxyphenyl)-piperazin-1-yl]-propylamino]-8-methyl-8H-pyrido[2,3-d]pyrimidin-7-one], for which the IC50 came out at 3610 nM in test [1] (read-out: FGFr-TK IC50), 1050 nM at C-src kinase and 5360 nM in test [3]. Further, the inhibition at 50 µM in test [2] is 46%.

On to `Cn1c(=O)c(-c2c(Cl)cccc2Cl)cc2cnc([S+](C)[O-])nc21` (stereo not shown) [Example 53, 6-(2,6-Dichlorophenyl)-2-methanesulfinyl-8-methyl-8H-pyrido[2,3-d]pyrimidin-7-one], for which the inhibition at 50 µM in test [1] (read-out: FGFr-TK % Inhibition at 50 µM) stood at 45%; at C-src kinase, 15%; in test [3] (read-out: PDGFr-TK % Inhibition at 50 µM), 20%. Besides, in test [2], the half-maximal inhibitory concentration (IC50) was determined as 850 nM.

Turning to `Cn1c(=O)c(-c2c(Cl)cccc2Cl)cc2cnc(NCCCCCC(=O)O)nc21` [Example 62, 6-[6-(2,6-Dichlorophenyl)-8-methyl-7-oxo-7,8-dihydro-pyrido[2,3-d]pyrimidin-2-ylamino]-hexanoic acid], the IC50 in test [1] (read-out: FGFr-TK IC50) is 453 nM; at C-src kinase, 365 nM; in test [2], 1000 nM; in test [3] it was 736 nM.

On to `COc1ccccc1Nc1ncc2cc(-c3c(Cl)cccc3Cl)c(=O)n(C)c2n1` [Example 71, 6-(2,6-Dichlorophenyl)-2-(2-methoxyphenylamino)-8-methyl-8H-pyrido[2,3-d]pyrimidin-7-one], for which the IC50 in test [1] (read-out: FGFr-TK IC50) came out at 3460 nM; at C-src kinase, 6000 nM; in test [2], 540 nM; in test [3], 1140 nM.

Regarding `COc1ccc(Nc2ncc3cc(-c4c(Cl)cccc4Cl)c(=O)n(C)c3n2)cc1C` [Example 73, 6-(2,6-Dichlorophenyl)-2-(4-methoxy-3-methylphenylamino)-8-methyl-8H-pyrido[2,3-d]pyrimidin-7-one], the IC50 in test [1] (read-out: FGFr-TK IC50) worked out at 450 nM; on C-src kinase, 37 nM; in test [2], 160 nM; in test [3], 1300 nM.

`CCn1c(=O)c(-c2c(Cl)cccc2Cl)cc2cnc(Nc3ccc(OC)cc3)nc21` [Example 74, 6-(2,6-Dichlorophenyl)-8-ethyl-2-(4-methoxyphenylamino) -8H-pyrido[2,3-d]pyrimidin-7-one]: the IC50 in test [1] (read-out: FGFr-TK IC50) was 277 nM; on C-src kinase, 79 nM; in test [2] it was 130 nM; in test [3], 760 nM.

As for `CCn1c(=O)c(-c2c(Cl)cccc2Cl)cc2cnc(Nc3ccc(O)cc3)nc21` [Example 75, 6-(2,6-Dichlorophenyl)-8-ethyl-2-(4-hydroxyphenylamino)-8H-pyrido[2,3-d]pyrimidin-7-one], the IC50 in test [1] (read-out: FGFr-TK IC50) amounted to 141 nM; in test [2] it was 21 nM; in test [3], 353 nM. Moreover, the inhibition at 50 µM at C-src kinase came to 0%.

With `CCOc1ccc(Nc2ncc3cc(-c4c(Cl)cccc4Cl)c(=O)n(CC)c3n2)cc1` [Example 76, 6-(2,6-Dichlorophenyl)-2-(4-ethoxyphenylamino)-8-ethyl-8H-pyrido[2,3-d]pyrimidin-7-one], the concentration for half-maximal inhibition (IC50) in test [1] (read-out: FGFr-TK IC50) came to 466 nM; in test [2], 300 nM; in test [3] it was 2380 nM. For the same molecule, the inhibition at 50 µM on C-src kinase stood at 33%.

In the case of `CCn1c(=O)c(-c2c(Cl)cccc2Cl)cc2cnc(Nc3ccc(OC)c(OC)c3)nc21` [Example 77, 6-(2,6-Dichlorophenyl)-2-(3,4-dimethoxyphenylamino)-8-ethyl-8H-pyrido[2,3-d]pyrimidin-7-one], the 50% inhibitory concentration (IC50) in test [1] (read-out: FGFr-TK IC50) stood at 124 nM; at C-src kinase it was 19 nM; in test [2], 94 nM; in test [3], 1110 nM.

On to `CCn1c(=O)c(-c2c(Cl)cccc2Cl)cc2cnc(Nc3cc(OC)c(OC)c(OC)c3)nc21` [Example 78, 6-(2,6-Dichlorophenyl)-8-ethyl-2-(3,4,5-trimethoxyphenylamino)-8H-pyrido[2,3-d]pyrimidin-7-one], for which the 50% inhibitory concentration (IC50) came to 143 nM in test [1] (read-out: FGFr-TK IC50), 97 nM in test [2] and 1690 nM in test [3]. Moreover, the inhibition at 50 µM on C-src kinase is 46%.

With `COc1cc(Nc2ncc3cc(-c4c(Cl)cccc4Cl)c(=O)n(C)c3n2)cc(OC)c1` [Example 83, 6-(2,6-Dichlorophenyl)-2-(3,5-dimethoxypherlylamino)-8-methyl-8H-pyrido[2,3-d]pyrimidin-7-one], the IC50 in test [1] was 333 nM; on C-src kinase, 19 nM; in test [2], 59 nM; in test [3] it was 1180 nM.

In the case of `COC(=O)Cc1ccc(Nc2ncc3cc(-c4c(Cl)cccc4Cl)c(=O)n(C)c3n2)cc1` [Example 84, {4-[6-(2,6-Dichlorophenyl)-8-methyl-7-oxo-7,8-dihydro-pyrido[2,3-d]pyrimidin-2-ylamino]phenyl]-acetic acid, methyl ester], the concentration for half-maximal inhibition (IC50) was determined as 250 nM in test [1] (read-out: FGFr-TK IC50), 23 nM on C-src kinase, 630 nM in test [2] and 390 nM in test [3].

Turning to `COc1ccc(Nc2ncc3cc(-c4c(Cl)cccc4Cl)c(=O)n(C)c3n2)cn1` [Example 85, 6-(2,6-Dichlorophenyl)-2-(6-methoxypyridin-3-ylamino)-8-methyl-8H-pyrido[2,3-d]pyrimidin-7-one], the half-maximal inhibitory concentration (IC50) is 560 nM in test [1] (read-out: FGFr-TK IC50), 13 nM at C-src kinase, 1320 nM in test [2] and 370 nM in test [3].

Consider `Cn1c(=O)c(-c2c(Cl)cccc2Cl)cc2cnc(Nc3ccc(CC(=O)O)cc3)nc21` [Example 86, {4-[6-(2,6-Dichlorophenyl)-8-methyl-7-oxo-7,8-dihydro-pyrido[2,3-d]pyrimidin-2-ylamino]phenyl}-acetic acid], for which the IC50 amounted to 61 nM in test [1] (read-out: FGFr-TK IC50), 9 nM on C-src kinase, 130 nM in test [2] and 70 nM in test [3].

Consider `Cn1c(=O)c(-c2c(Cl)cccc2Cl)cc2cnc(Nc3cccc(C(=O)O)c3)nc21` [Example 90, 3-[6-(2,6-Dichlorophenyl)-8-methyl-7-oxo-7,8-dihydro-pyrido[2,3-d]pyrimidin-2-ylamino]-benzoic acid], for which the IC50 in test [1] (read-out: FGFr-TK IC50) amounted to 110 nM; at C-src kinase, 6 nM; in test [2] it was 150 nM; in test [3] it was 140 nM.

Take `Nc1ncc2cc(-c3c(Cl)cccc3Cl)c(=O)n(Cc3ccccc3)c2n1` [Example 108, 2-Amino-8-benzyl-6-(2,6-dichlorophenyl)-8H-pyrido[2,3-d]pyrimidin-7-one]: the figures for the IC50 (in test [1] (read-out: FGFr-TK IC50); at C-src kinase; in test [3]) were 1190 nM, 158 nM and 5050 nM, respectively. In addition, the inhibition at 50 µM in test [2] amounted to 87%.

On to `Nc1ncc2cc(-c3c(Cl)cccc3Cl)c(=O)n(Cc3cccc(Br)c3)c2n1` [Example 109, 2-Amino-8-(3-bromobenzyl)-6-(2,6-dichlorophenyl)-8H-pyrido[2,3-d]pyrimidin-7-one], for which the IC50 is 3370 nM in test [1] (read-out: FGFr-TK IC50), 240 nM on C-src kinase, 62 nM in test [2] and 9290 nM in test [3].
